pIC50: −log10 of the molar value.
What was measured:
PI3K alpha = PI3K alpha (Homo sapiens (Human), UniProt P42336); test: Enzymatic PI3K alpha isoform inhibition (lipid kinase activity, Kinase-Glo luminescence); format: biochemical; conditions: Enzymatic assay
Summary of the method: (§1)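 ATP-depletion format: 10 nM PI3K with 5 μg/mL phosphatidylinositol and 2 μM ATP, run to ~50% ATP consumption, then Kinase-Glo added and remaining ATP read by luminescence after 5 min. IC50 from 4-parameter logistic fit, typically over 8 concentrations 10–0.003 μM.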

PI3K delta = PI3K delta (Homo sapiens (Human), UniProt O00329); test: Enzymatic PI3K delta isoform inhibition (lipid kinase activity, Kinase-Glo luminescence); format: biochemical; conditions: Enzymatic assay
Summary of the method: as §1

Sequence of PI3K alpha (P42336 other isoform, or with tags, fused parts or gaps): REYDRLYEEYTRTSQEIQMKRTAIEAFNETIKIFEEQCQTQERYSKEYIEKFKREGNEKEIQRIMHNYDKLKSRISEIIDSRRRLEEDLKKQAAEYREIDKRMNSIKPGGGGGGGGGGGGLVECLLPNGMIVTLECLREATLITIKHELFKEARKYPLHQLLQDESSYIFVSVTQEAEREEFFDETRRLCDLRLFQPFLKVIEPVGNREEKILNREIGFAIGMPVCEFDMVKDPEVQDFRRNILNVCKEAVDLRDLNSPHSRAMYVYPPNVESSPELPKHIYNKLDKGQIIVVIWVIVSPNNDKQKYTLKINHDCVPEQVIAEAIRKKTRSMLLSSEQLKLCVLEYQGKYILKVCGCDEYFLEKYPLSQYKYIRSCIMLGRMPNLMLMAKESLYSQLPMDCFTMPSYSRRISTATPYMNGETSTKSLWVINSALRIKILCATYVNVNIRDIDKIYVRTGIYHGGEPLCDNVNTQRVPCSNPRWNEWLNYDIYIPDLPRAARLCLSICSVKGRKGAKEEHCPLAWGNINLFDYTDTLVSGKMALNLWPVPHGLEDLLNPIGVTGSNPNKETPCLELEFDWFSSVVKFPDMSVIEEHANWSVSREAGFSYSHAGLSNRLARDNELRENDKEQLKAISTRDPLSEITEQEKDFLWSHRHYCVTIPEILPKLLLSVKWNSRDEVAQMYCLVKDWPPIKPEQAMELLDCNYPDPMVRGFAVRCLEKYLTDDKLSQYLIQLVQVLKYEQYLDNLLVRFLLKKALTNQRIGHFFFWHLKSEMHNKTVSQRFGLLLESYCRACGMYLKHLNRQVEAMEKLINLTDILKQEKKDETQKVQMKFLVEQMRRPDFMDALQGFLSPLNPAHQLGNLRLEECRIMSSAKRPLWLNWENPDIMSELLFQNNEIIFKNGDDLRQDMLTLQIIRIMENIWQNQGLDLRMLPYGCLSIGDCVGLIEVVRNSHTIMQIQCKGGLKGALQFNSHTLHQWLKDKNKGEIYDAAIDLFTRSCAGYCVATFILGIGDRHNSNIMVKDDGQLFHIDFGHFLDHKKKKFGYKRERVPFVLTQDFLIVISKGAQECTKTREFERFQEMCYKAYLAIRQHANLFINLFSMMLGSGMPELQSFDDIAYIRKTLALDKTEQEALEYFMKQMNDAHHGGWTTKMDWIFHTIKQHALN
Sequence of PI3K delta (O00329 other isoform, or with tags, fused parts or gaps linker GGGGGG): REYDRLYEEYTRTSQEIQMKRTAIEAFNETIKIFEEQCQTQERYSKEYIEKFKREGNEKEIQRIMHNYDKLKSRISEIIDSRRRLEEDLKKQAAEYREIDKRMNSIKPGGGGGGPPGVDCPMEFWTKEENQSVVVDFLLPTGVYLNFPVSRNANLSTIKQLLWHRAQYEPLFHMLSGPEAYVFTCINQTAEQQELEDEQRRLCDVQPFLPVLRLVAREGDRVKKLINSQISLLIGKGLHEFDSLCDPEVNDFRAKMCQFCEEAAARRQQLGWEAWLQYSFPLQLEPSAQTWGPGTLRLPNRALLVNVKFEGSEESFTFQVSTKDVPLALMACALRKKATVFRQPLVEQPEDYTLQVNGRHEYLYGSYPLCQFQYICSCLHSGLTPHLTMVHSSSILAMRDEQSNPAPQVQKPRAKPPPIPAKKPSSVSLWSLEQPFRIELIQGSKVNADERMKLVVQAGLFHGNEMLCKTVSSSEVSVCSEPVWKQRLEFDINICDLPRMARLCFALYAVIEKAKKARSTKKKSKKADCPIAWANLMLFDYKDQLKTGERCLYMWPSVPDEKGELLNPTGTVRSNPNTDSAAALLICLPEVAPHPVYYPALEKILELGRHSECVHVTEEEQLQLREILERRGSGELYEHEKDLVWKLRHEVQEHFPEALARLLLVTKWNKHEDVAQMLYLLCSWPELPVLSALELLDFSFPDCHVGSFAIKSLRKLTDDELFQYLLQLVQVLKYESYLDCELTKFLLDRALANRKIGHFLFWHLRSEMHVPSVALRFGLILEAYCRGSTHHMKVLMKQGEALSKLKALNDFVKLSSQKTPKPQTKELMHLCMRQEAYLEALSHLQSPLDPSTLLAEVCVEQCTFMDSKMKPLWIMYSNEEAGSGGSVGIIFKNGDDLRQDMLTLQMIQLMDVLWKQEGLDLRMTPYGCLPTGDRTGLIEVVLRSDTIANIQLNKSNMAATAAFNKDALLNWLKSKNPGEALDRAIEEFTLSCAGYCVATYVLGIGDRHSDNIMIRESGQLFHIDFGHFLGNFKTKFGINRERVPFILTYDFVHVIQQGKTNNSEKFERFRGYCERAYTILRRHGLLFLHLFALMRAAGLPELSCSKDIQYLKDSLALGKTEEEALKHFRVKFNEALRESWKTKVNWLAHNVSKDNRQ

Row | Structure (SMILES) | pIC50 (PI3K alpha) | pIC50 (PI3K delta)
1 | COc1ncc(N2CCOc3ccc(O[C@H]4CCN(C(=O)CCS(C)(=O)=O)C4)cc32)cc1Cl [Example B106, 1-{(S)-3-[4-(5-Chloro-6-methoxy-pyridin-3-yl)-3,4-dihydro-2H-benzo[1,4]oxazin-6-yloxy]-pyrrolidin-1-yl}-3-methanesulfonyl-propan-1-one] | 6.61 | 7.77
2 | COc1ncc(N2CCOc3ccc(O[C@H]4CCN(C(=O)CCO)C4)cc32)cc1Cl [Example B107, 1-{(S)-3-[4-(5-Chloro-6-methoxy-pyridin-3-yl)-3,4-dihydro-2H-benzo[1,4]oxazin-6-yloxy]-pyrrolidin-1-yl}-3-hydroxy-propan-1-one] | 6.62 | 8.40
3 | COc1ncc(N2CCOc3ccc(O[C@H]4CCN(C(=O)c5cnco5)C4)cc32)cc1Cl [Example B108, {(S)-3-[4-(5-Chloro-6-methoxy-pyridin-3-yl)-3,4-dihydro-2H-benzo[1,4]oxazin-6-yloxy]-pyrrolidin-1-yl}-oxazol-5-yl-methanone] | 7.03 | > 8.52
4 | COc1ncc(N2CCOc3ccc(O[C@H]4CCN(C(=O)CC#N)C4)cc32)cc1Cl [Example B109, 3-{(S)-3-[4-(5-Chloro-6-methoxy-pyridin-3-yl)-3,4-dihydro-2H-benzo[1,4]oxazin-6-yloxy]-pyrrolidin-1-yl}-3-oxo-propionitrile] | 6.93 | > 8.52
5 | COc1ncc(N2CCOc3ccc(O[C@H]4CCN(C(=O)CS(C)(=O)=O)C4)cc32)cc1F [Example B111, 1-{(S)-3-[4-(5-Fluoro-6-methoxy-pyridin-3-yl)-3,4-dihydro-2H-benzo[1,4]oxazin-6-yloxy]-pyrrolidin-1-yl}-2-methanesulfonyl-ethanone] | 6.16 | 7.22
6 | COc1ncc(N2CCOc3ccc(O[C@H]4CCN(C(=O)CCS(C)(=O)=O)C4)cc32)cc1F [Example B112, 1-{(S)-3-[4-(5-Fluoro-6-methoxy-pyridin-3-yl)-3,4-dihydro-2H-benzo[1,4]oxazin-6-yloxy]-pyrrolidin-1-yl}-3-methanesulfonyl-propan-1-one] | 6.42 | 7.59
7 | COc1ncc(N2CCOc3ccc(O[C@H]4CCN(C(=O)CCO)C4)cc32)cc1F [Example B113, 1-{(S)-3-[4-(5-Fluoro-6-methoxy-pyridin-3-yl)-3,4-dihydro-2H-benzo[1,4]oxazin-6-yloxy]-pyrrolidin-1-yl}-3-hydroxy-propan-1-one] | 5.56 | 6.96

More lines, in order of rising pIC50 (PI3K alpha), values ahead:

Row | pIC50 (PI3K alpha) | pIC50 (PI3K delta) | Structure (SMILES)
8 | 5.86 | 6.79 | COc1ncc(N2CCOc3ccc(O[C@H]4CCN(C(=O)c5cncnc5)C4)cc32)cc1F [Example B104, {(S)-3-[4-(5-Fluoro-6-methoxy-pyridin-3-yl)-3,4-dihydro-2H-benzo[1,4]oxazin-6-yloxy]-pyrrolidin-1-yl}-pyrimidin-5-yl-methanone]
9 | 6.12 | 7.70 | COc1ncc(N2CCOc3ccc(O[C@H]4CCN(C(=O)C5CCS(=O)(=O)C5)C4)cc32)cc1Cl (stereo partly drawn) [Example B105, {(S)-3-[4-(5-Chloro-6-methoxy-pyridin-3-yl)-3,4-dihydro-2H-benzo[1,4]oxazin-6-yloxy]-pyrrolidin-1-yl}-(1,1-dioxo-tetrahydro-1lambda*6*-thiophen-3-yl)-methanone]
10 | 6.62 | 7.34 | COc1ncc(N2CCOc3ccc(O[C@H]4CCN(C(=O)c5cnco5)C4)cc32)cc1F [Example B103, {(S)-3-[4-(5-Fluoro-6-methoxy-pyridin-3-yl)-3,4-dihydro-2H-benzo[1,4]oxazin-6-yloxy]-pyrrolidin-1-yl}-oxazol-5-yl-methanone]
11 | 6.83 | 8.52 | COc1ncc(N2CCOc3ccc(O[C@H]4CCN(C(=O)CS(C)(=O)=O)C4)cc32)cc1Cl [Example B110, 1-{(S)-3-[4-(5-Chloro-6-methoxy-pyridin-3-yl)-3,4-dihydro-2H-benzo[1,4]oxazin-6-yloxy]-pyrrolidin-1-yl}-2-methanesulfonyl-ethanone]

Reference: patent US9539260B2, “Dihydro-benzo-oxazine and dihydro-pyrido-oxazine derivatives” (Novartis AG, priority 2012, dated 2017)
